Active and inactive are the calls of the source.
How the values were obtained:
[1] = target: Alkaline phosphatase, placental type (Homo sapiens, UniProt P05187); test: PLAP enzyme inhibitors, confirmation, biochemical, luminescence (AID 1512); type: functional
[2] = target: Induced myeloid leukemia cell differentiation protein Mcl-1 (Homo sapiens, UniProt Q07820); type: functional
[3] = target: Glucose-6-phosphate 1-dehydrogenase (Homo sapiens, UniProt P11413); test: human G6PD enzyme inhibitors, dose response, selectivity assay for P. falciparum G6PD inhibitor project, biochemical, fluorescence (AID 504792); type: functional
Glucose-6-phosphate 1-dehydrogenase, sequence (P11413 whole entry): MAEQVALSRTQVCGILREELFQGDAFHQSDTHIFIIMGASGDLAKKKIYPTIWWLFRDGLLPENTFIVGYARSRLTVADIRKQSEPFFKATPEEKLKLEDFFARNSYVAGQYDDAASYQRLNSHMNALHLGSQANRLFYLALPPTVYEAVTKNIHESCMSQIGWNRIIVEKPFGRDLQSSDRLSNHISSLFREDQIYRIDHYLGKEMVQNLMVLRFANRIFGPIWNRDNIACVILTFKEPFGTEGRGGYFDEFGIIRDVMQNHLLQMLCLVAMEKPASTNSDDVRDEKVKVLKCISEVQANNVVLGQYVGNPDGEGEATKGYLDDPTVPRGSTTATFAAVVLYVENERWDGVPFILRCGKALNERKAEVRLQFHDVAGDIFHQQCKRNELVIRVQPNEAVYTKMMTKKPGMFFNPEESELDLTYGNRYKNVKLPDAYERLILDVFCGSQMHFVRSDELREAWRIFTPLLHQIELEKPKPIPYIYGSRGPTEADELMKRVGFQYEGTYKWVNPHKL

[4] = target: T1, Hexokinase HKDC1 (Homo sapiens, UniProt Q2TB90); test: HKDC1 hexokinase inhibitors, dose response, biochemical, W721R variant (AID 504729); type: functional
T1 sequence (Q2TB90 whole entry): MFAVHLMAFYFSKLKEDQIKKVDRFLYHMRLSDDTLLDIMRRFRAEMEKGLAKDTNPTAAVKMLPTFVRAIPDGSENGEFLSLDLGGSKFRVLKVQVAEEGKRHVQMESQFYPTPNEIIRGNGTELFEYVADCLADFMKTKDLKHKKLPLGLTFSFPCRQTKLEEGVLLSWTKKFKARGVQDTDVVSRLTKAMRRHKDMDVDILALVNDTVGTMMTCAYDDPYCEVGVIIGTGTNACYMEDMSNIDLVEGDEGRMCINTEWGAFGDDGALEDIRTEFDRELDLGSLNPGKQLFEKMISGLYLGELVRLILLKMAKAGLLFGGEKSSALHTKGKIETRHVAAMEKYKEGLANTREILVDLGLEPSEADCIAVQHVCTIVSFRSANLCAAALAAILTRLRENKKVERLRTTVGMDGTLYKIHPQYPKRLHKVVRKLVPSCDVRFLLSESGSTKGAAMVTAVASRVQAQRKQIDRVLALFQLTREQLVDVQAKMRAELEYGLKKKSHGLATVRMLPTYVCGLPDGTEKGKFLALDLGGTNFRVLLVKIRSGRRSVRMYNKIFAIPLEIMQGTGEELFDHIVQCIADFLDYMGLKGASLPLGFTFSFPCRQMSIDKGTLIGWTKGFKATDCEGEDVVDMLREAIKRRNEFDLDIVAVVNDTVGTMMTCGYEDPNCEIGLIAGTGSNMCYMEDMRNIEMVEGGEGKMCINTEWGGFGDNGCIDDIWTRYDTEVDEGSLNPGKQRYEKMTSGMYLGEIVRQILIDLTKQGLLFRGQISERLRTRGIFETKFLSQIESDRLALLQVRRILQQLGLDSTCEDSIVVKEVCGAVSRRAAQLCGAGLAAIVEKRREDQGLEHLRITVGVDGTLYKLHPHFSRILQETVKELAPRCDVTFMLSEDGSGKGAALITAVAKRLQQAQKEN

[5] = target: T2, Replicative DNA helicase DnaB (Mycobacterium tuberculosis, UniProt P9WMR3); test: DnaB intein splicing inhibitors, dose response, biochemical, cell-free fluorescence (AID 449749); type: functional
T2 sequence (P9WMR3 whole entry): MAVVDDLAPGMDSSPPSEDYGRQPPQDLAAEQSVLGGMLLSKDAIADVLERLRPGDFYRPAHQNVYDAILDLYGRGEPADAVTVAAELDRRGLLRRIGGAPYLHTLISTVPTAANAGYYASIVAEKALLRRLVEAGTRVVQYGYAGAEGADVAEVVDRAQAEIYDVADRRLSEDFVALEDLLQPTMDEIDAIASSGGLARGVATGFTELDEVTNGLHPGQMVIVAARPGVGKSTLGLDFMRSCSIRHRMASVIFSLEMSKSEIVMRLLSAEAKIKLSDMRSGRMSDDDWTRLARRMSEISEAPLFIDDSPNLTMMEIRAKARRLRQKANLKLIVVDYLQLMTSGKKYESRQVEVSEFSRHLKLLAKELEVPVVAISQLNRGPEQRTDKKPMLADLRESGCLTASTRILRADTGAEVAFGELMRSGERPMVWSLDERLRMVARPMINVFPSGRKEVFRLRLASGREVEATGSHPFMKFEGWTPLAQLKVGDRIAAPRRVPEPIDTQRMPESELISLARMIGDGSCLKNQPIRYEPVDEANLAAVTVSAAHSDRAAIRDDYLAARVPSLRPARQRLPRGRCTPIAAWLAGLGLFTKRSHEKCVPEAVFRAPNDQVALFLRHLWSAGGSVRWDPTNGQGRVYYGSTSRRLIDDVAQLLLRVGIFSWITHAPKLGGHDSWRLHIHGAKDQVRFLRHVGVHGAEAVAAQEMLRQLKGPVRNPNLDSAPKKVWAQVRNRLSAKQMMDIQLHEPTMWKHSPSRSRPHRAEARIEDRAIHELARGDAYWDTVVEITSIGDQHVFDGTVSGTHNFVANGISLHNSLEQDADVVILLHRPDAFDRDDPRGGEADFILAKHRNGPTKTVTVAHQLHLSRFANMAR

[6] = target: T3, Protein RecA (Mycobacterium tuberculosis, UniProt P9WHJ3); test: Fluorescence Cell-Free Homogeneous Dose Retest to Identify Inhibitors of RecA-Intein Splicing Activity. [Related pubchem assays (depositor defined):AID2097, AID2223, AID489010, AID492950]; type: functional
T3 sequence (P9WHJ3 whole entry): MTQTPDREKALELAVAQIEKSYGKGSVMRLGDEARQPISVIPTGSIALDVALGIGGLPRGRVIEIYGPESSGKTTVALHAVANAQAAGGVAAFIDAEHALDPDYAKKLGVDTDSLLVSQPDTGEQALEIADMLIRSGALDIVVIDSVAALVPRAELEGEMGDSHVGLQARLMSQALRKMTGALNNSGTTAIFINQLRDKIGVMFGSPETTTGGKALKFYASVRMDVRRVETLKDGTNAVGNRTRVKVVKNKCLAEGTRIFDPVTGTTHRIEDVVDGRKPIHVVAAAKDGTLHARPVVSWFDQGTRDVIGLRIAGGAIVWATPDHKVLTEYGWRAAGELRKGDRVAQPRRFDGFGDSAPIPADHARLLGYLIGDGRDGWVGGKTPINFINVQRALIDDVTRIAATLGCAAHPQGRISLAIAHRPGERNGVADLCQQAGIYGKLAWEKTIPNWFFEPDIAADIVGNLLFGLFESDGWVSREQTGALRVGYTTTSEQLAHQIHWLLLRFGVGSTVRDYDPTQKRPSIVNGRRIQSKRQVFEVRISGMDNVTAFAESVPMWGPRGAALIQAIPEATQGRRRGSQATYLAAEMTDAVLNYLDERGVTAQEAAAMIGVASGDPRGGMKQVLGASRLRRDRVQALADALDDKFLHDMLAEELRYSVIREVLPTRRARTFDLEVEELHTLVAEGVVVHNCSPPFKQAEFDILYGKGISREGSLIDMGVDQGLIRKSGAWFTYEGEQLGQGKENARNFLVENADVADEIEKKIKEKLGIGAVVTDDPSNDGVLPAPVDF

[7] = target: Genome polyprotein (dengue virus type 2, UniProt P29990); test: Dengue-2 NS5 methyltransferase inhibitors, primary screen, biochemical, confirmation dose response (AID 588689); type: functional
Genome polyprotein, sequence (P29990 2492-3391 limits assumed): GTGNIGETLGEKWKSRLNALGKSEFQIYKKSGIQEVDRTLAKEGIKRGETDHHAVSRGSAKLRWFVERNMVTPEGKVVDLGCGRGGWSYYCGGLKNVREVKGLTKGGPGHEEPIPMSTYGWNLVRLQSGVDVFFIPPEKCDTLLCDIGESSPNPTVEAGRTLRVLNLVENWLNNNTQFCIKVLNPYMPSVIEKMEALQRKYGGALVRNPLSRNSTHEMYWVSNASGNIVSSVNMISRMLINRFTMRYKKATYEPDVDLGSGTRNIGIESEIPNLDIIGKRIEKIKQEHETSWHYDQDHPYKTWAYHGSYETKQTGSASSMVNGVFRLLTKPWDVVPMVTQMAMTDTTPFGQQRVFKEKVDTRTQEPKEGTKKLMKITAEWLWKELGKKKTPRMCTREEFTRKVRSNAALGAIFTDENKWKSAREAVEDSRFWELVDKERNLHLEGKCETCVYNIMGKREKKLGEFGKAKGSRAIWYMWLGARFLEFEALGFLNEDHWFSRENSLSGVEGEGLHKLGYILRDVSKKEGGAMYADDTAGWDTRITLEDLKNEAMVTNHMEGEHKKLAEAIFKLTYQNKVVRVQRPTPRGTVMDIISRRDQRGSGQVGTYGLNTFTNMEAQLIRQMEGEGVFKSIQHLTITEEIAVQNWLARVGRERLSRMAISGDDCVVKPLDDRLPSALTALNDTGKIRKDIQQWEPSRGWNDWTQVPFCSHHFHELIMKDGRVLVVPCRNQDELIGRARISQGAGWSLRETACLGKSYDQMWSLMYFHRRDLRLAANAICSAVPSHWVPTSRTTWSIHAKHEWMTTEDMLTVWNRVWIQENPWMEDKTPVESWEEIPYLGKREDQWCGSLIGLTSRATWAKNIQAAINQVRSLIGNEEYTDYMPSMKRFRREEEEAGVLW

[8] = target: Glyceraldehyde-3-phosphate dehydrogenase (Homo sapiens, UniProt P04406)
Glyceraldehyde-3-phosphate dehydrogenase, sequence (P04406 whole entry): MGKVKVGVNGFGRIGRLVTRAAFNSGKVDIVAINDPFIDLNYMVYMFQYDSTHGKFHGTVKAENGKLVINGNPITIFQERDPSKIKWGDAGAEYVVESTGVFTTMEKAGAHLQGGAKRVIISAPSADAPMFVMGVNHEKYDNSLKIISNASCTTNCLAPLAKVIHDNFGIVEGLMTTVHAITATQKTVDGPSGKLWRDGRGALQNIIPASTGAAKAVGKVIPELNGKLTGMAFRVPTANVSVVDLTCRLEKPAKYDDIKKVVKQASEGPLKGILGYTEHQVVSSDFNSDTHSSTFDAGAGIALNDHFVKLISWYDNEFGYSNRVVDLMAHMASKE

[9] = target: T4, Alkaline phosphatase, tissue-nonspecific isozyme (Homo sapiens, UniProt P05186); test: human TNAP enzyme inhibitors, SAR follow-up, biochemical, luminescent, dose response (AID 1056)
T4 sequence (P05186 whole entry): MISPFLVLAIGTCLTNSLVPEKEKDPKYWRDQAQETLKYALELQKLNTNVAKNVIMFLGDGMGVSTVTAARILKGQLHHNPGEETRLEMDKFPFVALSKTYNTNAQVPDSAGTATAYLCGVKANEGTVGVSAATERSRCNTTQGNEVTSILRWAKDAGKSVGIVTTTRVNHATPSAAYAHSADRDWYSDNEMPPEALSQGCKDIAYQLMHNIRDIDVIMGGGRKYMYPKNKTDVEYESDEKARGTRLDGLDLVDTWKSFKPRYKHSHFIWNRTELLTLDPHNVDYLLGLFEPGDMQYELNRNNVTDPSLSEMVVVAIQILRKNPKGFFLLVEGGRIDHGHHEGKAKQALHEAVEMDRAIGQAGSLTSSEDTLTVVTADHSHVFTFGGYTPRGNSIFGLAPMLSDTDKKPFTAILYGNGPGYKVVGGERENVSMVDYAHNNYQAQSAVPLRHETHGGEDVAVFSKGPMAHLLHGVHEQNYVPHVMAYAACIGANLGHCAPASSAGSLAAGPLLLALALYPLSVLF

[10] = target: Neurotensin receptor type 1 (Homo sapiens, UniProt P30989); type: functional;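 also: Image-based confirmatory dose-response assay measuring agonist activity at NTR1; NTR1-expressing U2OS osteosarcoma cells imaged for beta-arrestin GFP spot formation; agonist potency where compounds increase beta-arrestin recruitment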
Neurotensin receptor type 1, sequence (P30989 whole entry): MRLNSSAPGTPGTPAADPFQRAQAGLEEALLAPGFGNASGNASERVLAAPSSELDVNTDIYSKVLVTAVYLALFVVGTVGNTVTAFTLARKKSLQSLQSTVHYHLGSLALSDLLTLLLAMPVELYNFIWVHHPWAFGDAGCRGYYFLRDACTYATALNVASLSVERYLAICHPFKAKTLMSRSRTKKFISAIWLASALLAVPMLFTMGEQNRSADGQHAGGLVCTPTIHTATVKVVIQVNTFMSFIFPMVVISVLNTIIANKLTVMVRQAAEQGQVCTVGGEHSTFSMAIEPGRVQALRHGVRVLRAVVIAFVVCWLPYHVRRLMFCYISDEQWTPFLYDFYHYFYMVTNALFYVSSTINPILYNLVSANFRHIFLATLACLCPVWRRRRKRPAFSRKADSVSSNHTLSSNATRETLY

[11] = target: Dual specificity protein phosphatase 3 (Homo sapiens, UniProt P51452); test: VHR1 inhibitor Ki determination, SAR follow-up, biochemical, colorimetric (AID 2004)
Dual specificity protein phosphatase 3, sequence (P51452 whole entry): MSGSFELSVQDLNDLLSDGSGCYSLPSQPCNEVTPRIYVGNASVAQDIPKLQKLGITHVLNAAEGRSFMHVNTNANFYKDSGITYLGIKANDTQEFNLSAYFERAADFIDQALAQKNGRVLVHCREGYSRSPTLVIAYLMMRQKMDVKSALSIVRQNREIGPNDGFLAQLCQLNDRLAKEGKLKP

[12] = inhibitors of intracellular T. cruzi replication, confirmation, NIH3T3 host cells, beta-gal luminescence (AID 2044); type: functional, cell-based;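 also: intracellular parasites grown in NIH/3T3 mouse fibroblasts as host cells; luminescent beta-galactosidase reporter signal from transgenic T. cruzi replicating inside host cells; inhibitors lower the luminescence signal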
[13] = cytotoxicity toward NIH3T3 fibroblasts, dose response, counter-screen, cell-based, ATP luminescence, mouse fibroblasts (AID 2010); type: functional;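 also: cells exposed to compound for about 90 hours before reading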
[14] = target: Coagulation factor XII (Homo sapiens, UniProt P00748); type: functional;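 also: activated factor XIIa alpha cleaving a fluorogenic AMC peptide substrate; inhibitor potency from loss of enzyme activity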
[15] = target: Large T antigen (Simian virus 40, UniProt P03070); type: functional, Betapolyomavirus macacae;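 also: Confirmatory-stage PubChem screen for compounds that inhibit SV40 T antigen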
Large T antigen, sequence (P03070 whole entry): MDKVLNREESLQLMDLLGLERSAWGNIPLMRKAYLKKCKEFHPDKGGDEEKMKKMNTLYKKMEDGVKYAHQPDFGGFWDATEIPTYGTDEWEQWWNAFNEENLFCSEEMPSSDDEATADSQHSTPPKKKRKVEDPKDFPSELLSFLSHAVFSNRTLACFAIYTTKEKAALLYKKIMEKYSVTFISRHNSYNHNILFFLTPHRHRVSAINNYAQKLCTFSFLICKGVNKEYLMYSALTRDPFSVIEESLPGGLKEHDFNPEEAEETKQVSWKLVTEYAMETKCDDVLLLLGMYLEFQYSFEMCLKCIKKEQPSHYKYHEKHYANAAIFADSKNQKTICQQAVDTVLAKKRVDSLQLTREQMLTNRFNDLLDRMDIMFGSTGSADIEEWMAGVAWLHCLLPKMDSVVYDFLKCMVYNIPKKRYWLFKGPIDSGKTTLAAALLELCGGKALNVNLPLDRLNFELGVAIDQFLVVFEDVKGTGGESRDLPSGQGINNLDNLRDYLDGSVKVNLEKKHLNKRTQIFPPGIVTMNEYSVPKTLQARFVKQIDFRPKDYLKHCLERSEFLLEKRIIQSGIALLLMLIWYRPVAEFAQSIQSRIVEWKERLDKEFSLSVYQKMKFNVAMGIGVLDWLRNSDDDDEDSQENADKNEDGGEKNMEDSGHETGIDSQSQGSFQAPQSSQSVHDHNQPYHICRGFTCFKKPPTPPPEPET

[16] = target: T5, Mannose-6-phosphate isomerase (Homo sapiens, UniProt P34949); test: PMI enzyme inhibitors, confirmation, biochemical, fluorescence intensity (AID 1535)
T5 sequence (P34949 whole entry): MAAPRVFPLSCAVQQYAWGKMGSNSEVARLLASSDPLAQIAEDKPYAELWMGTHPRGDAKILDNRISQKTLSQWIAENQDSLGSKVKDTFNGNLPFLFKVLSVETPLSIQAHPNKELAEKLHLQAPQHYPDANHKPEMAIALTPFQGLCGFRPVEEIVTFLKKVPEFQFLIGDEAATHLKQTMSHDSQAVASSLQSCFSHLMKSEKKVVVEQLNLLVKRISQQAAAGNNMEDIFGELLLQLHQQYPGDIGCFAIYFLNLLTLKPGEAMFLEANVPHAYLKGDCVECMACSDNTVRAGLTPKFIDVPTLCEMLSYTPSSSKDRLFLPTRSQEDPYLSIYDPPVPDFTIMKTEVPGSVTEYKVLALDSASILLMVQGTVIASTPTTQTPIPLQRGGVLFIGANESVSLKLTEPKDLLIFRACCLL

[17] = target: DNA dC->dU-editing enzyme APOBEC-3A (Homo sapiens, UniProt P31941); test: APOBEC3A DNA deaminase inhibitors, dose response, biochemical (AID 504722); type: functional
DNA dC->dU-editing enzyme APOBEC-3A, sequence (P31941 whole entry): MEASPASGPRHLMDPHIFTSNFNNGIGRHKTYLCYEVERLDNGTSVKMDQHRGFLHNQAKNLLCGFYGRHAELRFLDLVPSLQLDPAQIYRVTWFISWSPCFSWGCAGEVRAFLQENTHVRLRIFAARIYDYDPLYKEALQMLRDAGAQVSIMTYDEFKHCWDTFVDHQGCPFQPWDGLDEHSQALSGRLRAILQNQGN

[18] = target: T6, Phosphomannomutase 2 (Homo sapiens, UniProt O15305); test: Counter screen SAR assay for PMM2 inhibitors via a fluorescence intensity assay. [Related pubchem assays (depositor defined):AID1545, AID1574]
T6 sequence (O15305 whole entry): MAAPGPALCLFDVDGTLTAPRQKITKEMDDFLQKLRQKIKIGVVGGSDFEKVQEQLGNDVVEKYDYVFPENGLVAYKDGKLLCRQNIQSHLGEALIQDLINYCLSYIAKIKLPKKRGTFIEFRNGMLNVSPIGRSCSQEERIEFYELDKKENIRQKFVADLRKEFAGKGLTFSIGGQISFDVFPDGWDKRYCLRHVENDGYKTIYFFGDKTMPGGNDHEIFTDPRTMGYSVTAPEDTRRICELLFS

[19] = target: DNA dC->dU-editing enzyme APOBEC-3G (Homo sapiens, UniProt Q9HC16); test: Dose Response confirmation of small molecule APOBEC3G DNA Deaminase Inhibitors via a fluorescence-based single-stranded DNA deaminase assay. [Related pubchem assays (depositor defined):AID493012, AID493028]; type: functional
DNA dC->dU-editing enzyme APOBEC-3G, sequence (Q9HC16 whole entry): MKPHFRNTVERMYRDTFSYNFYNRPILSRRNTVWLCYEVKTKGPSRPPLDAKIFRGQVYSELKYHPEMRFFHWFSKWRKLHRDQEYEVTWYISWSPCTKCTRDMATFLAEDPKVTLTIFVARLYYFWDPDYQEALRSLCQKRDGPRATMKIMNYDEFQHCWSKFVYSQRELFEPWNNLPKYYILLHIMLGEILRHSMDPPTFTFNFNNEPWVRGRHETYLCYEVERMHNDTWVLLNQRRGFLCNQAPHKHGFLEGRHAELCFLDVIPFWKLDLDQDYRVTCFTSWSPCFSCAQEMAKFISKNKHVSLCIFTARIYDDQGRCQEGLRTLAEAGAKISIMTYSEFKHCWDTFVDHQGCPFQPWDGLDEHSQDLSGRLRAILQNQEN

[20] = target: Mitochondrial peptide methionine sulfoxide reductase (Bos taurus, UniProt P54149); test: Absorbance-based biochemical high throughput dose response assay for activators of Methionine sulfoxide reductase A (MsrA).; type: functional
Mitochondrial peptide methionine sulfoxide reductase, sequence (P54149 whole entry): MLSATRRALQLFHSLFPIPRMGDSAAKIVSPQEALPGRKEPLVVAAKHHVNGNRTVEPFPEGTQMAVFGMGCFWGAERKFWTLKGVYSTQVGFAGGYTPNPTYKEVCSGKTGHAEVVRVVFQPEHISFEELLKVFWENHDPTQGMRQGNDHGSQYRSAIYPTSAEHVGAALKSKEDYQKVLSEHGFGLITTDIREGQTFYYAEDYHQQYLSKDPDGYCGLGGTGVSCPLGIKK

[21] = target: DNA damage-inducible transcript 3 protein (Mus musculus, UniProt P35639); type: functional, Cricetulus griseus
DNA damage-inducible transcript 3 protein, sequence (P35639 whole entry): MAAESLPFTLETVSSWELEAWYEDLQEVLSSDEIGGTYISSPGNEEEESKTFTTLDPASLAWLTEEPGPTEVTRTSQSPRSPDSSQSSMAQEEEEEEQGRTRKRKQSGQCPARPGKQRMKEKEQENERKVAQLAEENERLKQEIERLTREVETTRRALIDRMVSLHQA

[22] = target: E3 ubiquitin-protein ligase Mdm2 (Homo sapiens, UniProt Q00987); test: enhancers of MDM2-luciferase reporter signal, concentration-effect titration, project on inhibitors of MDM2 ubiquitin ligase, cellular assay, luminescent readout, 384-well plate format (AID 1394); type: functional;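 also: MDM2 E3 inhibitors raise luminescence so EC50 is for signal enhancement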
[23] = cytotoxicity in HEK-293T cells, dose response, cytotoxicity control for TCR NF-kB inhibitor project, luminescence, T-cell screen hits (AID 489026); type: functional, cell-based;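 also: cells exposed to compound about 14 hours before the viability readout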
[24] = system: INS1; test: beta cell apoptosis inhibitors, cytokine rescue, dose response, luminescence, retest (AID 449756); type: functional, cell-based; details: Rattus norvegicus;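 also: cell death triggered by IL-1 beta plus TNF-alpha plus IFN-gamma mixture; protective hits raise ATP signal compared with cytokine alone wells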

Alkaline phosphatase, placental type, sequence (P05187 whole entry): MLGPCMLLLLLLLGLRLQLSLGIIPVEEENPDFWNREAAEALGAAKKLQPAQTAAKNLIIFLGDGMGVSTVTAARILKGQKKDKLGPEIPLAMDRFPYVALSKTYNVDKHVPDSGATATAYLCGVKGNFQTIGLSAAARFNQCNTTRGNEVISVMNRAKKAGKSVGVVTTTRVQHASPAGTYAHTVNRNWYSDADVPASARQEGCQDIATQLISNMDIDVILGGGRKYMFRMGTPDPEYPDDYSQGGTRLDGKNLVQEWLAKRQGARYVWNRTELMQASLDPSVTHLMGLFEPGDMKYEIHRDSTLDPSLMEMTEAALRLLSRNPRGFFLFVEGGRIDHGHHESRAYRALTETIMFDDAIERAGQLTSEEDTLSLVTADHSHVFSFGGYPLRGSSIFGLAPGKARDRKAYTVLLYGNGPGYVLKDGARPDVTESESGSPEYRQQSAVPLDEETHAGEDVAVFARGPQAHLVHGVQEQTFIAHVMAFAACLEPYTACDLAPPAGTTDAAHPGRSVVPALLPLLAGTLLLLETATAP
Induced myeloid leukemia cell differentiation protein Mcl-1, sequence (Q07820 whole entry): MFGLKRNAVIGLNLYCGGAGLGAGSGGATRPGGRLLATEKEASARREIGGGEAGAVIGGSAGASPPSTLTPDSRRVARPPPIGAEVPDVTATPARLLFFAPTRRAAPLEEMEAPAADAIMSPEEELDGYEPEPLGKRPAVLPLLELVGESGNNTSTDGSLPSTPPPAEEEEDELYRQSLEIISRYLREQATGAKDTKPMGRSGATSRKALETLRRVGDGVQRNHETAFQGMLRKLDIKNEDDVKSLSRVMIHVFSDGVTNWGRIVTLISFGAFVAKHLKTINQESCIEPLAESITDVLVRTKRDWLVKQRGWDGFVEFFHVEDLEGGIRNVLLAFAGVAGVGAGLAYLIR

COc1ccc(C(=O)NN=C(S)NC2CCCCC2)cc1OC
IC50 [1]: > 100 µM (inactive)

Cc1nc(COC(=O)c2cc(O)c3ccccc3c2O)cs1
IC50 [2]: 4.84 µM (active)
IC50 [3]: > 80 µM (inactive)
IC50 [4]: 12.1 µM (active)
AC50 [5]: 24.7 µM (active)
EC50 [6]: 5.24 µM (active)
IC50 [7]: 43.1 µM (active)

O=S(=O)(Nc1cnc2ccccc2c1)c1ccccc1OC(F)(F)F
IC50 [8]: > 100 µM (not active)
IC50 [9]: 16.4 µM (active)

C[C@H](NC(=O)c1nc[nH]c1C(=O)Nc1cccc(Cl)c1)c1ccccc1
EC50 [10]: 24 µM (inactive)

S=C(S)N(CCN(Cc1cccs1)C(=S)S)Cc1cccs1
Ki [11]: 36.3 µM (inactive)

O=C(c1cc(-c2cc(F)c(Cl)cc2Cl)n[nH]1)N1CCCC1
IC50 [8]: > 100 µM (not active)
IC50 [1]: > 100 µM (inactive)
IC50 [9]: > 100 µM (inactive)

CC1(C)c2ssc(=S)c2-c2ccccc2N1C(=O)CN1CCOCC1
Ki [11]: 40.5 µM (inactive)

COc1ccc(CN2CCN(C(=O)C3CCC(CNS(=O)(=O)c4ccccc4)CC3)CC2)c(OC)c1OC (stereo unspecified)
EC50 [12]: 503 nM (active)
EC50 [13]: > 60 µM (not active)
IC50 [14]: > 50 µM (inactive)

COc1cc(-c2n[nH]c(=S)[nH]2)cc(OC)c1OC
IC50 [15]: 8.6 µM (active)
IC50 [16]: 38.9 µM (active)
IC50 [17]: > 100 µM (inactive)
IC50 [18]: > 100 µM (inactive)
IC50 [19]: 3.13 µM (active)
EC50 [20]: > 104 µM (inactive)

Oc1ccc(/C=N/N2CCN(C3c4ccccc4-c4ccccc43)CC2)c(O)c1
Absolute IC50 (CHOP) [21]: 10 µM

Sc1nncn1/N=C/c1ccc(Br)cc1
IC50 [17]: > 100 µM (inactive)
IC50 [19]: 2.72 µM (active)

C=C1C(=O)O[C@H]2C[C@@H](C)[C@@H]3C=CC(=O)[C@@]3(C)C[C@H]12 [AROMATICIN]
EC50 [22]: 590 nM (not active)
IC50 [23]: > 80 µM (inactive)
Absolute IC50 (CHOP) [21]: 10 µM
AC50 [24]: 7.82 µM (active)

— ChEMBL document CHEMBL1201862, “PubChem BioAssay data set” (2004)
